Experimental data published in patent US12558428B2, “Heterobifunctional compounds and their use in treating disease” (Halda Therapeutics OpCo, Inc., priority 2024, dated 2026).

What was measured:
Assay type in all cases: cell-based
[1] = test system: T-Rex 293 cells lacking increased expression of estrogen receptor alpha protein; assay: Cellular growth inhibition assay, T-Rex 293 cells, (−) doxycycline; settings: T-REx-293, 72 h, Table 7-A; T-Rex 293 cells without doxycycline (lacking increased ERα expression); 72 hours; CellTiter-Glo; read-out: (−) Dox GI50
How it was run: (§1)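 Viability read-out was CellTiter-Glo 2.0 luminescence after 72 h compound exposure, normalized to zero luminescence and fitted by four-parameter regression to give GI50. Cells were an ERα-inducible T-Rex 293 clone cultured with or without 3 ng/mL doxycycline in charcoal-stripped, phenol red-free medium.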

[2] = test system: T-Rex 293 cells having increased expression of estrogen receptor alpha protein; assay: Cellular growth inhibition assay, T-Rex 293 cells, (+) doxycycline; settings: T-REx-293, 72 h, Table 7-A; T-Rex 293 cells with doxycycline (increased ERα expression); 72 hours; CellTiter-Glo; read-out: (+) Dox GI50
How it was run: as §1

[3] = test system: MCF7 cells (ATCC #HTB-22); assay: Cellular growth inhibition assay, MCF7 cells purchased from ATCC; settings: Homo sapiens, MCF7, 144 h, Table 8-A; MCF7 cells purchased from ATCC; six days; CellTiter-Glo; read-out: GI50
How it was run: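 MCF7 cells in RPMI 1640 with 10% FBS and 0.2 U/ml insulin, seeded at 1,500 cells/well (ATCC) or 225 cells/well (ECACC). Compounds added 24 h later, then 6 days at 37° C. Viability by CellTiter-Glo 2.0 luminescence. GI50 from four-parameter fit.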

| SMILES | GI50 [3] [nM] | GI50 [1] [nM] | GI50 [2] [nM] |
| --- | --- | --- | --- |
| Cc1sc2c(c1C)C(c1ccc(N3CC(N4CCN(Cc5ccc([C@@H]6c7ccc(O)cc7CC[C@@H]6c6ccccc6)cc5)CC4)C3)cc1)=N[C@@H](Cc1ncco1)c1nnc(C)n1-2 [III-124] | 50 to 500 | 500 to 2500 | 50 to 500 |
| Cc1sc2c(c1C)C(c1ccc(N3CCC(CN4CCN(c5ccc([C@H]6c7ccc(O)cc7CC[C@H]6c6ccccc6)cn5)CC4)CC3)cc1)=N[C@@H](Cc1ncco1)c1nnc(C)n1-2 [III-125] | 50 to 500 | 50 to 500 | < 50 |
| Cc1sc2c(c1C)C(c1ccc(N3CCC(CN4CCN(c5ccc([C@@H]6c7ccc(O)cc7CC[C@@H]6c6ccccc6)cn5)CC4)CC3)cc1)=N[C@@H](Cc1ncco1)c1nnc(C)n1-2 [III-126] | 50 to 500 | 50 to 500 | < 50 |
| Cc1sc2c(c1C)C(c1ccc(N3CCN(CC4CCN(c5ncc([C@H]6c7ccc(O)cc7CC[C@H]6c6ccccc6)cn5)CC4)CC3)cc1)=N[C@@H](Cc1ncco1)c1nnc(C)n1-2 [III-127] | 50 to 500 | 500 to 2500 | 50 to 500 |
| Cc1sc2c(c1C)C(c1ccc(N3CCN(CC4CCN(c5ncc([C@@H]6c7ccc(O)cc7CC[C@@H]6c6ccccc6)cn5)CC4)CC3)cc1)=N[C@@H](Cc1ncco1)c1nnc(C)n1-2 [III-128] | 50 to 500 | 50 to 500 | < 50 |
| Cc1sc2c(c1C)C(c1ccc(N3CCC4(CCN(Cc5ccc([C@@H]6c7ccc(O)cc7CC[C@@H]6c6ccccc6)cc5)CC4)CC3)cc1)=N[C@@H](C)c1nnc(C)n1-2 [III-129] | 50 to 500 | 500 to 2500 | 50 to 500 |
| COC1(CN2CCC(c3ccc([C@@H]4c5ccc(O)cc5CC[C@@H]4c4ccccc4)cc3)CC2)CCN(c2ccc(C3=N[C@@H](C)c4nnc(C)n4-c4sc(C)c(C)c43)cc2)CC1 [III-130] | 50 to 500 | 500 to 2500 | 50 to 500 |
| Cc1sc2c(c1C)C(c1ccc(N3CC(CC4CCN(CC5CN(c6ccc([C@@H]7c8ccc(O)cc8CC[C@@H]7c7ccccc7)cc6)C5)CC4)C3)cc1)=N[C@@H](C)c1nnc(C)n1-2 [III-131] | 50 to 500 | 500 to 2500 | < 50 |
| Cc1sc2c(c1C)C(c1ccc(N3CCC(CN4CCC(c5ccc([C@@H]6c7ccc(O)cc7CC[C@@H]6c6ccccc6)cc5)CC4)CC3)cc1)=N[C@@H](C)c1nnc(C)n1-2 [III-132] | 50 to 500 | 500 to 2500 | 50 to 500 |
| Cc1sc2c(c1C)C(c1ccc(N3CC(CN4CCC(CC5CN(c6ccc([C@@H]7c8ccc(O)cc8CC[C@@H]7c7ccccc7)cc6)C5)CC4)C3)cc1)=N[C@@H](C)c1nnc(C)n1-2 [III-133] | 50 to 500 | 50 to 500 | < 50 |
| Cc1sc2c(c1C)C(c1ccc(N3CC(C(=O)N4CCC(CC5CN(c6ccc([C@@H]7c8ccc(O)cc8CC[C@@H]7c7ccccc7)cc6)C5)CC4)C3)cc1)=N[C@@H](C)c1nnc(C)n1-2 [III-134] | < 50 | 50 to 500 | < 50 |
| Cc1sc2c(c1C)C(c1ccc(N3CC(CC4CCN(C(=O)C5CN(c6ccc([C@@H]7c8ccc(O)cc8CC[C@@H]7c7ccccc7)cc6)C5)CC4)C3)cc1)=N[C@@H](C)c1nnc(C)n1-2 [III-135] | < 50 | 500 to 2500 | < 50 |
| Cc1sc2c(c1C)C(c1ccc(N3CC(CN4CCN(CC5CN(c6ccc([C@H]7c8ccc(O)cc8CC[C@H]7c7ccccc7)cc6)C5)CC4)C3)cc1)=N[C@H](C)c1nnc(C)n1-2 [III-136] | > 2500 | > 2500 | > 2500 |
| Cc1sc2c(c1C)C(c1ccc(CC(=O)N3CCC4(CCN(c5ccc([C@@H]6c7ccc(O)cc7CC[C@@H]6c6ccccc6)cc5)CC4)C3)cc1)=N[C@@H](C)c1nnc(C)n1-2 [III-137] | 50 to 500 | 500 to 2500 | 500 to 2500 |
| Cc1sc2c(c1C)C(c1ccc(N3CC(CC4CCN(c5ccc([C@@H]6c7ccc(O)cc7CC[C@@H]6c6ccccc6)cc5)CC4)C3)cc1)=N[C@@H](C)c1nnc(C)n1-2 [III-138] | 500 to 2500 | > 2500 | 500 to 2500 |
| Cc1sc2c(c1C)C(c1ccc(N3CC(C(=O)N4CCC(c5ccc([C@@H]6c7ccc(O)cc7CC[C@@H]6c6ccccc6)cc5)CC4)C3)cc1)=N[C@@H](C)c1nnc(C)n1-2 [III-139] | 50 to 500 | 500 to 2500 | 500 to 2500 |
| Cc1sc2c(c1C)C(c1ccc(N3CCC(O)(CN4CCC(c5ccc([C@@H]6c7ccc(O)cc7CC[C@@H]6c6ccccc6)cc5)CC4)CC3)cc1)=N[C@@H](Cc1ncco1)c1nnc(C)n1-2 [III-140] | < 50 | 500 to 2500 | 50 to 500 |
| Cc1sc2c(c1C)C(c1ccc(C3CN(CC4CCN(c5ccc([C@@H]6c7ccc(O)cc7CC[C@@H]6c6ccccc6)cc5)CC4)C3)cc1)=N[C@@H](C)c1nnc(C)n1-2 [III-141] | 50 to 500 | 500 to 2500 | 50 to 500 |
| Cc1sc2c(c1C)C(c1ccc(C3CN(C(=O)C4CCN(c5ccc([C@@H]6c7ccc(O)cc7CC[C@@H]6c6ccccc6)cc5)CC4)C3)cc1)=N[C@@H](C)c1nnc(C)n1-2 [III-142] | 50 to 500 | 50 to 500 | 50 to 500 |
| Cc1sc2c(c1C)C(c1ccc(N3CCC(O)(CN4CCN(c5ccc([C@@H]6c7ccc(O)cc7CC[C@@H]6c6ccccc6)cc5)CC4)CC3)cc1)=N[C@@H](Cc1ncco1)c1nnc(C)n1-2 [III-143] | > 2500 | > 2500 | > 2500 |
| Cc1sc2c(c1C)C(c1ccc(N3CCC(F)(CN4CCC(c5ccc([C@@H]6c7ccc(O)cc7CC[C@@H]6c6ccccc6)cc5)CC4)CC3)cc1)=N[C@@H](C)c1nnc(C)n1-2 [III-144] | 500 to 2500 | > 2500 | 50 to 500 |

Now from value to molecule, other results behind:

| GI50 [3] [nM] | SMILES | GI50 [1] [nM] | GI50 [2] [nM] |
| --- | --- | --- | --- |
| 50 to 500 | Cc1sc2c(c1C)C(c1ccc(N3CCC(C)(CN4CCC(c5ccc([C@@H]6c7ccc(O)cc7CC[C@@H]6c6ccccc6)cc5)CC4)CC3)cc1)=N[C@@H](C)c1nnc(C)n1-2 [III-145] | 500 to 2500 | 500 to 2500 |
| < 50 | Cc1sc2c(c1C)C(c1ccc(N3CC(CN4CCN(CC5CN(c6ccc([C@@H]7c8ccc(O)cc8CC[C@@H]7c7ccccc7)cc6)C5)CC4)C3)cc1)=N[C@H](C)c1nnc(C)n1-2 [III-146] | 500 to 2500 | 500 to 2500 |
| 50 to 500 | Cc1sc2c(c1C)C(c1ccc(N3CC(CN4CCN(CC5CN(c6ccc([C@H]7c8ccc(O)cc8CC[C@H]7c7ccccc7)cc6)C5)CC4)C3)cc1)=N[C@@H](C)c1nnc(C)n1-2 [III-147] | 50 to 500 | 50 to 500 |
| < 50 | Cc1sc2c(c1C)C(c1ccc(N3CC(CN4CCC(c5ccc([C@@H]6c7ccc(O)cc7CC[C@@H]6c6ccccc6)cc5)CC4)C3)cc1)=N[C@@H](C)c1nnc(C)n1-2 [III-148] | 500 to 2500 | < 50 |
| < 50 | Cc1sc2c(c1C)C(c1ccc(N3CCC(C(=O)N4CCN(c5ccc([C@@H]6c7ccc(O)cc7CC[C@@H]6c6ccccc6)cc5)CC4)CC3)cc1)=N[C@@H](Cc1ncco1)c1nnc(C)n1-2 [III-149] | 50 to 500 | < 50 |
| 50 to 500 | Cc1sc2c(c1C)C(c1ccc(N3CCC(C#N)(CN4CCN(c5ccc([C@@H]6c7ccc(O)cc7CC[C@@H]6c6ccccc6)cc5)CC4)CC3)cc1)=N[C@@H](C)c1nnc(C)n1-2 [III-150] | 500 to 2500 | < 50 |
| < 50 | Cc1sc2c(c1C)C(c1ccc(N3CC(CC4CCN(CC5(F)CN(c6ccc([C@@H]7c8ccc(O)cc8CC[C@@H]7c7ccccc7)cc6)C5)CC4)C3)cc1)=N[C@@H](C)c1nnc(C)n1-2 [III-151] | > 2500 | < 50 |
| 50 to 500 | Cc1sc2c(c1C)C(c1ccc(N3CCC(O)(CC4CCN(c5ccc([C@@H]6c7ccc(O)cc7CC[C@@H]6c6ccccc6)cc5)CC4)CC3)cc1)=N[C@@H](C)c1nnc(C)n1-2 [III-152] | 500 to 2500 | < 50 |
| 50 to 500 | Cc1sc2c(c1C)C(c1ccc(N3CCC(CC4(O)CCN(c5ccc([C@@H]6c7ccc(O)cc7CC[C@@H]6c6ccccc6)cc5)CC4)CC3)cc1)=N[C@@H](C)c1nnc(C)n1-2 [III-153] | 500 to 2500 | < 50 |
| 50 to 500 | Cc1sc2c(c1C)C(c1ccc(N3CCC(O)(CC4CCN(c5ccc([C@@H]6c7ccc(O)cc7CC[C@@H]6c6ccccc6)cc5)CC4)CC3)cc1)=N[C@H](Cc1ncco1)c1nnc(C)n1-2 [III-154] | > 2500 | > 2500 |
| < 50 | Cc1sc2c(c1C)C(c1ccc(N3CCC(O)(CC4CCN(c5ccc([C@@H]6c7ccc(O)cc7CC[C@@H]6c6ccccc6)cc5)CC4)CC3)cc1)=N[C@@H](Cc1ncco1)c1nnc(C)n1-2 [III-155] | 50 to 500 | < 50 |
| < 50 | Cc1sc2c(c1C)C(c1ccc(C3CN(C(=O)C4CCN(c5ccc([C@@H]6c7ccc(O)cc7CC[C@@H]6c6ccccc6)cc5)CC4)C3)cc1)=N[C@@H](Cc1ncco1)c1nnc(C)n1-2 [III-156] | < 50 | < 50 |
| 50 to 500 | Cc1sc2c(c1C)C(c1ccc(N3CC(F)(CN4CCC(CC5CN(c6ccc([C@@H]7c8ccc(O)cc8CC[C@@H]7c7ccccc7)cc6)C5)CC4)C3)cc1)=N[C@@H](C)c1nnc(C)n1-2 [III-157] | 500 to 2500 | < 50 |
